Source: the supplement of paper PMC10307832

Experiments:
Test in all cases: relative viability (nuclei count vs DMSO), 5 days (fraction); higher = more cells survive
[1] = compound: CC1=C(C(=O)N2C=CSC2=N1)CCN3CCC(=C(C4=CC=CC=C4)C5=CC=C(C=C5)F)CC3 + CC(C)C[C@H](NC(=O)[C@H](Cc1ccccc1)NC(=O)c1cnccn1)B(O)O [Bortezomib] (partner 0.002 µM)
Procedure, shortened: (§1)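 Relative viability equals treated-well nuclei counts divided by vehicle-well nuclei counts. Counts came from 4× images of lung cancer cell lines grown in 1536-well plates for 5 days after pin-tool dosing on the day after seeding. Dosing used one drug alone or a fixed anchor-drug dose plus five library-drug doses (not always all listed) in √10 steps, and values are medians of duplicate plates.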

[2] = compound: CC1=C(C(=O)N2C=CSC2=N1)CCN3CCC(=C(C4=CC=CC=C4)C5=CC=C(C=C5)F)CC3 + CS(=O)(=O)CCNCc1ccc(-c2ccc3ncnc(Nc4ccc(OCc5cccc(F)c5)c(Cl)c4)c3c2)o1 [Lapatinib] (partner 2 µM)
Procedure, shortened: as §1

[3] = compound: CC1=C(C(=O)N2C=CSC2=N1)CCN3CCC(=C(C4=CC=CC=C4)C5=CC=C(C=C5)F)CC3 + NC(=O)Nc1cc(-c2cccc(F)c2)sc1C(=O)N[C@H]1CCCNC1 [AZD7762] (partner 0.2 µM)
Procedure, shortened: as §1

[4] = compound: CC1=C(C(=O)N2C=CSC2=N1)CCN3CCC(=C(C4=CC=CC=C4)C5=CC=C(C=C5)F)CC3 + Nc1ncn([C@H]2C[C@H](O)[C@@H](CO)O2)c(=O)n1 [Decitabine] (partner 2 µM)
Procedure, shortened: as §1

Cell Line	relative viability ([1]; first compound 0.08 µM)	relative viability ([1]; first compound 0.253 µM)	relative viability ([1]; first compound 0.8 µM)	relative viability ([1]; first compound 2.53 µM)	relative viability ([1]; first compound 8 µM)	relative viability ([2]; first compound 0.08 µM)	relative viability ([2]; first compound 0.253 µM)	relative viability ([2]; first compound 0.8 µM)	relative viability ([2]; first compound 2.53 µM)	relative viability ([2]; first compound 8 µM)	relative viability ([3]; first compound 0.08 µM)	relative viability ([3]; first compound 0.253 µM)	relative viability ([3]; first compound 0.8 µM)	relative viability ([3]; first compound 2.53 µM)	relative viability ([3]; first compound 8 µM)	relative viability ([4]; first compound 0.08 µM)	relative viability ([4]; first compound 0.253 µM)	relative viability ([4]; first compound 0.8 µM)	relative viability ([4]; first compound 2.53 µM)	relative viability ([4]; first compound 8 µM)
NCI-H647	0.858	0.744	0.888	1.5	0.453	1.06	1.05	1.19	1.26	0.319	0.558	0.449	0.37	0.426	0.234	0.389	0.412	0.378	0.505	0.297
NCI-H650	–	0.696	0.877	0.817	0.599	–	0.883	0.838	1.03	0.646	1.07	0.998	0.94	1.04	0.805	0.342	0.363	0.339	0.319	0.274
NCI-H727	0.802	1.03	0.997	0.858	0.633	0.778	0.674	0.757	0.984	0.553	0.561	0.744	0.715	0.575	0.553	0.861	0.974	0.888	1.03	0.792
NCI-H838	0.591	0.581	0.654	0.824	0.696	0.806	0.826	0.917	1.43	0.596	0.839	0.904	0.992	0.958	0.806	0.488	0.459	0.472	0.547	0.414
NCI-H1355	1.28	1.25	1.25	1.21	0.921	1.04	0.981	1.03	0.997	0.885	1.02	0.846	0.822	0.815	0.595	0.38	0.382	0.369	0.354	0.368
NCI-H1437	–	0.398	0.476	0.484	0.351	–	0.718	0.88	0.928	0.487	1.25	1.32	1.21	1.14	1.04	0.568	0.62	0.616	0.613	0.39
NCI-H1651	0.858	0.874	0.908	1.01	0.809	0.876	0.759	0.912	1.02	0.514	0.438	0.467	0.472	0.467	0.304	0.644	0.604	0.587	0.597	0.526
NCI-H1666	0.83	0.762	0.924	0.815	0.695	0.565	0.704	0.584	0.621	0.486	0.787	0.819	0.847	0.946	0.673	0.714	0.786	0.678	0.873	0.616
NCI-H1734	0.873	0.715	0.915	1.12	0.447	1.08	0.866	0.984	1.33	0.71	0.545	0.487	0.475	0.549	0.368	0.481	0.469	0.507	0.504	0.496
NCI-H1755	0.948	0.9	0.962	1.11	0.44	1.08	1.01	1.05	1.08	0.861	0.465	0.446	0.434	0.508	0.418	0.677	0.784	0.721	0.66	0.754
NCI-H1792	0.742	0.614	0.976	0.77	0.438	1.02	0.401	0.931	0.921	0.489	0.649	0.655	0.62	0.636	0.386	0.312	0.561	0.614	0.426	0.19
NCI-H1915	1.02	0.864	1.1	0.971	0.472	1.22	1.07	0.959	1.12	0.691	0.714	0.802	0.662	0.75	0.518	0.305	0.277	0.265	0.253	0.257
NCI-H1975	0.35	0.329	0.368	0.434	0.362	0.97	0.855	0.867	0.891	0.518	0.658	0.76	0.769	0.738	0.618	0.347	0.507	0.36	0.408	0.353
NCI-H1993	0.834	–	0.919	1.5	0.987	0.801	–	0.886	0.706	0.808	0.501	0.632	0.726	0.73	0.63	0.635	0.644	0.6	0.64	0.576
NCI-H2085	1.04	1.02	1.07	1.07	0.878	0.805	0.774	0.763	0.986	0.72	1.06	1.29	0.92	1.03	0.89	0.553	0.563	0.504	0.573	0.559
NCI-H2087	0.836	0.795	1.02	1.02	0.589	1.13	0.88	1.07	1.23	0.843	1.21	1.36	1.58	1.24	0.506	0.245	0.236	0.255	0.286	0.191
NCI-H2126	1.24	1.07	1.15	1.22	1.08	0.848	0.815	0.77	0.772	0.836	1.07	0.961	1.03	1.04	0.705	0.588	0.518	0.599	0.614	0.514
NCI-H2347	–	1.18	0.957	1.04	0.895	0.947	1.12	0.965	0.931	0.917	0.603	0.692	0.773	0.895	0.553	0.375	0.693	0.667	0.621	0.513
NCI-H2405	0.872	0.969	0.999	0.732	0.814	1.29	1.06	1.05	1.17	0.955	0.901	–	0.725	0.74	0.55	0.785	–	0.8	0.724	0.617
NCI-H3122	1.04	1.04	0.993	1.14	1.16	1.01	1.14	1.03	1.2	0.964	0.86	1.05	0.983	1.14	0.59	0.398	0.434	0.402	0.467	0.439
PC-3 [JPC-3]	0.811	0.895	0.969	1.01	0.642	0.392	0.496	0.454	0.454	0.449	0.768	–	0.815	0.78	0.736	0.826	–	0.932	0.845	0.846
PC-14	0.9	0.759	1.01	1.09	0.592	0.296	0.335	0.301	0.352	0.295	0.373	0.312	0.369	0.371	0.246	0.205	0.241	0.201	0.237	0.176
RERF-LC-KJ	1.02	1.02	1.16	1.18	1	0.873	0.753	0.921	0.907	0.666	0.636	0.936	1.15	0.945	0.584	0.715	0.746	0.647	0.62	0.572
